Measured values reported in patent US20220033490A1 (priority 2018, published 2022).

Target: T1, α6*nAChR (Homo sapiens, UniProt Q15825)
T1 construct: endogenous in cells; host or cells: human inducible Tregs (from naïve CD4+ T cells of PBMCs) co-cultured with autologous CD8+ T cells
Format: cell-based

T1 sequence (Q15825 26-494): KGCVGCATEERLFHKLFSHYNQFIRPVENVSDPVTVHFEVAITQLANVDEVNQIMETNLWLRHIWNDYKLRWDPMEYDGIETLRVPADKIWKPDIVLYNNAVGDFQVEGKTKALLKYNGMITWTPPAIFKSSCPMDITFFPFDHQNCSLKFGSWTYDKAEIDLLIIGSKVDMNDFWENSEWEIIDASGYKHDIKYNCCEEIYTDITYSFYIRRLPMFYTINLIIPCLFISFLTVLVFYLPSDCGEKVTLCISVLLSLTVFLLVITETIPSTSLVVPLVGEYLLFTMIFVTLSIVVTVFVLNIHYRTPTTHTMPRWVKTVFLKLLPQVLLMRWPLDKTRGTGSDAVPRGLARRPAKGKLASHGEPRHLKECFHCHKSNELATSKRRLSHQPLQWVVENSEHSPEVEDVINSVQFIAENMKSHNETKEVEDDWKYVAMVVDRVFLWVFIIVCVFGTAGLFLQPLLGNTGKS

Question: `CN1CCCC1c1cccnc1` (centres unmarked) [nicotine] was tested. Which “IFNγ+CD8+ T-cells in co-culture” value did it give?
Answer: Its value is “trend of decreasing IFNγ+CD8+ T-cells”.

Question: alpha-conotoxin PIA [[…]-conotoxin PIA] was tested. Which “IFNγ+CD8+ T cells in co-culture” value did it give?
Answer: The value was “trend of increasing IFNγ+CD8+ T cells”.
